Here are results for 88 molecules from ChEMBL document CHEMBL1157539, “Thousands of chemical starting points for antimalarial lead identification” (Nature, 2010).

This experiment has as its system Plasmodium falciparum. The experiment in a line: GSK_TCMDC: Inhibition of Plasmodium falciparum 3D7 in whole erythrocytes, using parasite LDH activity as an index of growth. The class given is functional, organism-based. To be noted: Plasmodium falciparum, 3D7.

On to `O=c1nc(NCCCNCc2cc3c(Cl)cc(Cl)cc3[nH]2)[nH]c2ccsc12`, for which the XC50 amounted to 1120 nM. Turning to `Cc1c(Cl)cccc1S(=O)(=O)N1CCCCC(c2ccc(C(F)(F)F)cc2)=N1`, the XC50 was 788 nM. Regarding `CCOC(=O)c1ccc(NC(=O)Nc2cccc(-c3cccc(-c4nc5ccccc5[nH]4)c3)c2)cc1`, the XC50 worked out at 68.7 nM. `Cc1[nH]c(C)c(-c2ccc(-c3cccc(Cl)c3)nc2)c(=O)c1Br` gave an XC50 of 318 nM.

Regarding `CN(C)CCc1c[nH]c2ccc(C(=O)Nc3ccc(-c4ccncc4)cc3)cc12`, the XC50 is 567 nM. Next, `CC(C)Sc1nc2c(c(=O)n1CCc1ccccc1)C1(CCCCC1)Cc1ccccc1-2`: 1870 nM.

In turn, `Cc1nc(NCc2ccccc2)cc(NCC(O)c2ccc(O)cc2)n1` (stereo not drawn) had an XC50 of 1230 nM. Next, `Nc1nc(Nc2cccc(Cl)c2)ncc1C(=O)NCc1ccncc1`: 832 nM; `COC(=O)c1ccc(CC(C)NCC(O)c2cccc(OC(F)(F)F)c2)cc1` (stereo not drawn): 863 nM. Next, `OCCNc1nc(Nc2ccc(F)cc2)nc2ccccc12`: 164 nM.

`Cc1cccc(C(=O)Nc2ccnc(N3CCC(N(C)Cc4cccc(C#N)c4)CC3)c2)c1` gave an XC50 of 1100 nM. `CC(C)N1CCN(C(CN2CCN(CCCOc3ccc4nonc4c3)CC2)c2ccc(F)cc2)CC1` (stereo not drawn) gave an XC50 of 796 nM. `Cc1ccc(S(=O)(=O)N2CCN(C(=O)c3cc(-c4cccs4)n[nH]3)CC2)c(C)c1` showed an XC50 of 866 nM. Next, `COc1ccc2nccc([C@@H](O)CN3CCC(NCc4cc5cc(Cl)ccc5[nH]4)CC3)c2c1`: 128 nM; `N#Cc1cccc(NC(=O)Nc2ccc(-c3csc(-c4nc5ccccc5[nH]4)c3)cc2)c1`: 152 nM; `CCCCCCOc1ccc(C(=O)N(Cc2ccccc2)c2c(-c3ccccc3)nc3cc(C)ccn23)cc1`: 774 nM. The molecule `CCOc1cc(C(=O)NC2CCN(Cc3ccccc3)CC2)ccc1-c1nc2cc(Cl)c(F)cc2[nH]1` displayed an XC50 of 802 nM. With `COc1cc2nc(-c3ccccc3)nc(N3CCN(C(=O)c4ccco4)CC3)c2cc1OC` the figure was 1410 nM; with `CCCCCCCCNCC(O)c1ccc(Cl)c(Cl)c1` (stereo not drawn), 819 nM; with `COc1cc(Nc2nccc(N3CCC(NC(=O)C(C)c4ccc(Cl)cc4)C3)n2)cc(OC)c1OC` (stereo not drawn), 757 nM. For the molecule `Cc1ccc(Nc2ccnc(Nc3ccc(F)c(Cl)c3)n2)cc1O`, the XC50 worked out at 733 nM.

`COc1cccc2cc(C(=O)N[C@@H](CC(C)C)C(=O)N[C@H](C=NN3CCCC3=O)Cc3ccccc3)oc12` came in with an XC50 of 558 nM. As to `Cc1noc(NC(=O)c2sc3ccccc3c2O)c1C`, the XC50 came out at 852 nM. Consider `COc1ccc(-c2cccc(NC(=O)c3cccc(Cl)c3)c2)cc1CN(C)CCN(C)C`, for which the XC50 is 813 nM. Next, `CCCC(CNCc1cccc(OCC)c1)CNc1cc(=O)c2ccccc2[nH]1` (stereo not drawn): 855 nM; `CC[C@H]1CN2CC[C@H]1C[C@@H]2[C@H](O)c1ccnc2ccc(O)cc12`: 1040 nM; `CC(C)(C)Nc1cc(C(=O)N[C@@H](Cc2ccccc2)[C@H](O)CNC2CCOCC2)cc(N2CCCCS2(=O)=O)c1`: 150 nM. `CCOc1cc2c(cc1OCC)C(c1ccc(O)c(Cl)c1)NCC2` (stereo not drawn) came in with an XC50 of 790 nM. With `CCc1ccc2nc(-c3ccc(F)cc3)nc(SCC(=O)Nc3sc(C)c(C)c3C#N)c2c1`, the XC50 amounted to 643 nM.

Regarding `O=C(/C=C/c1ccc(Cl)c(Cl)c1)NCCCCCN1CCC(NC(=O)Nc2ccccc2F)CC1`, the XC50 was 839 nM. `O=C(NCCc1ccccc1F)c1ccc(N2CCN(c3ccncc3)CC2)cn1`: the XC50 came out at 1080 nM. Turning to `CCn1c(Sc2ccc(C#N)c([N+](=O)[O-])c2)nnc1-c1ccc(OC)cc1`, the XC50 is 805 nM. Turning to `O=c1[nH]ccc2nc(N[C@@H]3CCNC3)nc(Nc3ccc4c(c3)S(=O)(=O)CC4)c12`, the XC50 was 377 nM. Take `Clc1ccc(-n2cnc3c(Nc4ccc(Oc5ccccc5)cc4)ncnc32)cc1Cl`: the XC50 turned out to be 747 nM.

Molecule `CC(C)NCc1cccc(-c2ccc(NC(=O)c3ccc(C#N)cc3)cc2)c1` showed an XC50 of 825 nM.

Molecule `CNC(=O)C1Cc2c([nH]c3c(C)cccc23)C2(N1)C(=O)Nc1ccc(OC(F)(F)F)cc12` (stereo not drawn) displayed an XC50 of 464 nM. `COc1ccc(C(c2ccc(N(C)C)cc2)c2ccc(N(C)C)cc2)cc1` yielded an XC50 of 64.8 nM. Turning to `O=C(/C=C/c1ccc(Cl)c(Cl)c1)NCCCCCN1CCC(c2n[nH]c(-c3ccccc3)c2Br)CC1`, the XC50 was determined as 723 nM. With `CC(Cc1ccc(-c2nc3ccccc3[nH]2)cc1)NCC(O)c1cccc(C(F)(F)F)c1` (stereo not drawn) the figure was 352 nM; with `CN(C)CCCOC(=O)c1cc2cc(-c3ccccc3)ccc2n1S(=O)(=O)Cc1ccccc1`, 361 nM. The molecule `c1ccc(-c2ccc(CNCCCNc3nc4ccccc4[nH]3)cc2)cc1` came in with an XC50 of 783 nM. On to `Cc1nc(N2CCC(C)CC2)c2c3c(sc2n1)CCCC3`, for which the XC50 was 1060 nM. With `N#Cc1ccccc1C(=O)N(Cc1cncn1Cc1cccc(F)c1)CC1CC1` the figure was 734 nM; with `N#Cc1ccc(S(=O)(=O)N2C(c3cccc([N+](=O)[O-])c3)C(C(=O)c3ccccc3)N(C3CCCCC3)C2c2cccc([N+](=O)[O-])c2)cc1` (stereo not drawn), 1080 nM; with `COc1ccc2nc3cc(Cl)ccc3c(NCc3ccccc3)c2c1`, 866 nM. As to `O=C(Nc1ccc(CN2CCOCC2)cc1)c1ccc(-c2ccc(Br)cc2)o1`, the XC50 was found to be 1120 nM. In the case of `CCCOc1c(CCNCCCCNCCc2ccc3ccccc3c2OCCC)ccc2ccccc12`, the XC50 is 482 nM. Molecule `Cc1[nH]c(C)c(C(F)(F)F)c(=O)c1-c1ccc(Oc2ccc(OC(F)(F)F)cc2)cc1` displayed an XC50 of 173 nM. With `O=C(Nc1ccc(-c2nc3ccccc3[nH]2)cc1)c1ccc(N2CCOCC2)c([N+](=O)[O-])c1` the figure was 794 nM; with `COc1cc(NCCCNCC2c3ccccc3Oc3ccccc32)nc2ccccc12`, 331 nM; with `COc1ccc(-c2cnc(N)nc2N)cc1Cl`, 1400 nM. `Cn1cc(C2CCN(CCCCNC(=O)c3ccc(C(=O)Nc4ccc(C#N)cc4)cc3)CC2)c2ccccc21` came in with an XC50 of 724 nM. With `c1ccc(CCNCc2ccc(-c3ccc(CNCc4ccc5c(c4)OCO5)cc3)nc2)cc1` the figure was 1250 nM; with `O=C(Nc1cccc(C(F)(F)F)c1)NC1CCN(c2ccnc3cc(Cl)ccc23)C1` (stereo not drawn), 120 nM. Next, `COc1ccc(COc2c(OC)cc(Cc3cnc(N)nc3N)cc2OC)cc1`: 912 nM; `NC(=O)c1ccc(-n2cnc3cc(F)ccc32)cc1OCc1ccccc1C(F)(F)F.NC(=O)c1ccc(-n2cnc3ccc(F)cc32)cc1OCc1ccccc1C(F)(F)F`: 363 nM; `CC1(C)N=C(N)N=C(N)N1c1ccc(Cl)cc1`: 31.1 nM.

`CC1(C)CC(NC(=O)NC2CCN(Cc3ccccc3)CC2)CC(C)(CNC(=O)NC2CCN(Cc3ccccc3)CC2)C1` (stereo not drawn) registered an XC50 of 946 nM. With `COc1ccccc1CCN(C)CCN1CCC(NC(=O)c2ccc(-c3ccc(C(F)(F)F)cc3)cc2)CC1` the figure was 1030 nM; with `CCc1c(C)nc(-n2nc(C)cc2NC(=O)c2cccc3ccccc23)[nH]c1=O`, 682 nM; with `CN(CCN)Cc1cccc(-c2ccc(-c3nc4cc(C(F)(F)F)ccc4[nH]3)s2)c1`, 997 nM. `c1ccc2c(c1)CN(CC1CCOCC1)CC1(CCN(Cc3c[nH]c4cnccc34)CC1)O2` displayed an XC50 of 1550 nM.

On to `OCCNc1nc(Nc2ccc(Cl)cc2)nc2ccccc12`, for which the XC50 came to 708 nM. `CC(=O)Nc1ccc(CN2Cc3ccc(NC(=O)Nc4ccc(Oc5ccccc5)cc4)cc3C2)s1` yielded an XC50 of 918 nM. Next, `Cc1nc(N)nc(N)c1-c1ccc(Cl)cc1`: 767 nM; `O=C(N[C@@H](Cc1ccccc1)CN1CCC(Oc2ccc(F)cc2)CC1)c1ccc(OCCCN2CCCCC2)cc1`: 885 nM. As to `O=C(Nc1ccc2c(c1)CCC2)c1ccc(N2CCN(c3ccncc3)CC2)cc1`, the XC50 stood at 1130 nM. With `CSCCC(C(=O)O)N1C(=O)c2ccccc2C1=O` (stereo not drawn) the figure was 1030 nM. Next, `CN(C)c1cc(C(=O)N[C@@H](Cc2ccccc2)[C@H](O)CNC2CCCCC2)cc2[nH]ccc12`: 1070 nM.

`CCOC(=O)CCCc1cc(NC2CCN(C)CC2)nc(Nc2ccc(OC)cc2)n1`: the XC50 was found to be 704 nM. `COc1ccc2ncc(Cl)c([C@@H](O)CN3CCC(NCc4cc5c(cn4)OCCO5)CC3)c2c1` displayed an XC50 of 59.5 nM. `COc1ccccc1NC(=S)N/N=C/c1ccc(O)cc1O` displayed an XC50 of 1020 nM.

The molecule `O=C(C=Cc1ccc(Cl)c(Cl)c1)NCCCCCN1CCC(CCNC(=O)c2sc3ccccc3c2Cl)CC1` had an XC50 of 1010 nM. Take `CC(C)C(=O)ONC1=NC(C)(C)N(OCCCOc2cc(Cl)c(Cl)cc2Cl)C(NOC(=O)C(C)C)=N1`: the XC50 stood at 26.6 nM.

Take `Cc1[nH]c(C)c(-c2ccc(-c3ccc(Cl)cc3)nc2)c(=O)c1Cl`: the XC50 was determined as 106 nM. In the case of `Cc1ccc(CNC(=O)[C@H](CC(C)C)Nc2cc(C)nc(NCC3CCCCC3)n2)cc1`, the XC50 turned out to be 926 nM.

The molecule `Cc1nnc2c(NC(=O)NC3CCCC3)cc3ccc(-c4cccc(CN5CCN(C)CC5)c4)cc3n12` registered an XC50 of 917 nM. The molecule `Cc1ccccc1N1CCN(c2ccc(C(=O)NC3CC3)cn2)CC1` yielded an XC50 of 459 nM. In the case of `Oc1ccc2[nH]c(-c3ccc(OC(F)(F)F)cc3)nc2c1CNC1CCCC1`, the XC50 was 1750 nM. `CCN(CCO)CCc1cccc(Nc2nccc(-c3c(-c4ccc(NC(=O)N(CC)CC)cc4)nn4ccccc34)n2)c1` displayed an XC50 of 1110 nM. In turn, `Oc1ccc(CCNCCCCCCNCCc2ccc(-c3ccccc3)cc2)cc1O` registered an XC50 of 603 nM. Regarding `CC(=O)Nc1ncc(C(=O)Nc2cccc(-c3ccc(-c4nc5ccccc5[nH]4)cc3)c2)s1`, the XC50 was found to be 669 nM. With `CCOC(=O)c1cn(CC)c2cc(OCc3ccccc3)ccc2c1=O`, the XC50 amounted to 947 nM. Regarding `O=C(Nc1ccc(Cl)cc1)c1ccc(CN2CCCN(Cc3cccc(Cl)c3)CC2)cc1`, the XC50 came out at 826 nM.

With `COc1c(Br)cc(Br)cc1-c1ccc(CN2C3CCCC2CCC3)[nH]1`, the XC50 was 1110 nM. As for `COc1cc(OC)nc(C(Sc2ccc(NC(=O)c3cccs3)cc2)c2ccccc2)n1` (stereo not drawn), the XC50 is 57.5 nM. In turn, `Cc1ccc(CC(C)(C)NCC(O)c2cccc(C(F)(F)F)c2)cc1` (stereo not drawn) showed an XC50 of 836 nM. With `O=C(Cc1c[nH]cn1)Nc1ccc(-c2ccc(-c3nc4ccccc4[nH]3)s2)cc1` the figure was 1060 nM.
